According to ChEMBL document CHEMBL1629674, “Surveillance of carbapenem-resistant Pseudomonas aeruginosa isolates from Puerto Rican Medical Center Hospitals: dissemination of KPC and IMP-18 beta-lactamases” (2009):
Values after ≈ are worked out from the molar mass of the structure shown.

Legend:
Pseudomonas aeruginosa [1] = assay: Antimicrobial activity against Pseudomonas aeruginosa PS43 with PFGE phenotype 2 expressing beta-lactamase KPC-2, OXA-2 obtained from skin of ICU patient by agar dilution method; assay type: functional
Pseudomonas aeruginosa [2] = assay: Antimicrobial activity against Pseudomonas aeruginosa PS6A with PFGE phenotype 11A obtained from sputum of ICU patient by agar dilution method; assay type: functional
Pseudomonas aeruginosa [3] = assay: Antimicrobial activity against Pseudomonas aeruginosa PS29 with PFGE phenotype 11D obtained from sputum of patient by agar dilution method; assay type: functional
Pseudomonas aeruginosa [4] = assay: Antimicrobial activity against Pseudomonas aeruginosa PS19A with PFGE phenotype 11C obtained from urine of patient by agar dilution method; assay type: functional
Pseudomonas aeruginosa [5] = assay: Antimicrobial activity against Pseudomonas aeruginosa PS26 with PFGE phenotype 3A expressing beta-lactamase OXA-2 obtained from sputum of ICU patient by agar dilution method; assay type: functional
Pseudomonas aeruginosa [6] = assay: Antimicrobial activity against Pseudomonas aeruginosa PS23 with PFGE phenotype 4A expressing beta-lactamase KPC-2 obtained from blood of patient by agar dilution method; assay type: functional
Pseudomonas aeruginosa [7] = assay: Antimicrobial activity against Pseudomonas aeruginosa PS14 with PFGE phenotype 10C obtained from sputum of ICU patient by agar dilution method; assay type: functional
Pseudomonas aeruginosa [8] = assay: Antimicrobial activity against Pseudomonas aeruginosa PS1 with PFGE phenotype 9C negative for blaIMP, blaVIM and blaKPC obtained from sputum of patient by agar dilution method
Pseudomonas aeruginosa [9] = assay: Antimicrobial activity against Pseudomonas aeruginosa PS40 with PFGE phenotype 5 expressing beta-lactamase KPC-2, OXA-2 obtained from urine of patient by agar dilution method; assay type: functional
Pseudomonas aeruginosa [10] = assay: Antimicrobial activity against Pseudomonas aeruginosa PS25 with PFGE phenotype 1A obtained from sputum of patient by agar dilution method; assay type: functional
Pseudomonas aeruginosa [11] = assay: Antimicrobial activity against Pseudomonas aeruginosa PS18A with PFGE phenotype 11D obtained from CSF of ICU patient by agar dilution method; assay type: functional
Pseudomonas aeruginosa [12] = assay: Antimicrobial activity against Pseudomonas aeruginosa PS7A with PFGE phenotype 11D obtained from urine of ICU patient by agar dilution method; assay type: functional
Pseudomonas aeruginosa [13] = assay: Antimicrobial activity against Pseudomonas aeruginosa PS11A with PFGE phenotype 7A obtained from sputum of ICU patient by agar dilution method; assay type: functional
Pseudomonas aeruginosa [14] = assay: Antimicrobial activity against Pseudomonas aeruginosa PS13 with PFGE phenotype 11E obtained from sputum of ICU patient by agar dilution method; assay type: functional
Pseudomonas aeruginosa [15] = assay: Antimicrobial activity against Pseudomonas aeruginosa PS10 with PFGE phenotype 1A expressing beta-lactamase KPC-2 obtained from blood of patient by agar dilution method; assay type: functional
Pseudomonas aeruginosa [16] = assay: Antimicrobial activity against Pseudomonas aeruginosa PS37 with PFGE phenotype 11D obtained from sputum of patient by agar dilution method; assay type: functional
Pseudomonas aeruginosa [17] = assay: Antimicrobial activity against Pseudomonas aeruginosa PS30 with PFGE phenotype 11D obtained from sputum of patient by agar dilution method; assay type: functional
Pseudomonas aeruginosa [18] = assay: Antimicrobial activity against Pseudomonas aeruginosa PS2 with PFGE phenotype 10B obtained from urine of ICU patient by agar dilution method; assay type: functional
Pseudomonas aeruginosa [19] = assay: Antimicrobial activity against Pseudomonas aeruginosa PS44 with PFGE phenotype 13 expressing beta-lactamase IMP-18 obtained from blood of patient by agar dilution method; assay type: functional
Pseudomonas aeruginosa [20] = assay: Antimicrobial activity against Pseudomonas aeruginosa PS12 with PFGE phenotype 7B obtained from sputum of patient by agar dilution method; assay type: functional
Pseudomonas aeruginosa [21] = assay: Antimicrobial activity against Pseudomonas aeruginosa PS33 with PFGE phenotype 9A obtained from blood of patient by agar dilution method; assay type: functional
Pseudomonas aeruginosa [22] = assay: Antimicrobial activity against Pseudomonas aeruginosa PS9 with PFGE phenotype 3B obtained from sputum of patient by agar dilution method; assay type: functional
Pseudomonas aeruginosa [23] = assay: Antimicrobial activity against Pseudomonas aeruginosa PS21 with PFGE phenotype 11F obtained from skin of patient by agar dilution method; assay type: functional
Pseudomonas aeruginosa [24] = assay: Antimicrobial activity against Pseudomonas aeruginosa PS39 with PFGE phenotype 8 expressing beta-lactamase IMP-18 obtained from urine of patient by agar dilution method; assay type: functional
Pseudomonas aeruginosa [25] = assay: Antimicrobial activity against OprD overproducing Pseudomonas aeruginosa PAO1 expressing mexA and oprD by agar dilution method; assay type: functional
Pseudomonas aeruginosa [26] = assay: Antimicrobial activity against Pseudomonas aeruginosa PS35 with PFGE phenotype 11A obtained from urine of patient by agar dilution method; assay type: functional
Pseudomonas aeruginosa [27] = assay: Antimicrobial activity against Pseudomonas aeruginosa PS41 with PFGE phenotype 11D obtained from urine of patient by agar dilution method; assay type: functional
Pseudomonas aeruginosa [28] = assay: Antimicrobial activity against Pseudomonas aeruginosa PS17B with PFGE phenotype 11D expressing beta-lactamase KPC-2 obtained from blood of ICU patient by agar dilution method; assay type: functional
Pseudomonas aeruginosa [29] = assay: Antimicrobial activity against Pseudomonas aeruginosa PS34 with PFGE phenotype 4A obtained from blood of ICU patient by agar dilution method; assay type: functional
Pseudomonas aeruginosa [30] = assay: Antimicrobial activity against Pseudomonas aeruginosa PS15A with PFGE phenotype 10A obtained from blood of patient by agar dilution method; assay type: functional
Pseudomonas aeruginosa [31] = assay: Antimicrobial activity against Pseudomonas aeruginosa PS20A with PFGE phenotype 11D obtained from skin of patient by agar dilution method; assay type: functional
Pseudomonas aeruginosa [32] = assay: Antimicrobial activity against Pseudomonas aeruginosa PS4 with PFGE phenotype 9B expressing beta-lactamase IMP-18 obtained from sputum of patient by agar dilution method; assay type: functional
Pseudomonas aeruginosa [33] = assay: Antimicrobial activity against Pseudomonas aeruginosa PS36 with PFGE phenotype 11B obtained from urine of patient by agar dilution method; assay type: functional
Pseudomonas aeruginosa [34] = assay: Antimicrobial activity against Pseudomonas aeruginosa PS5 with PFGE phenotype 7A expressing beta-lactamase KPC-2 obtained from sputum of ICU patient by agar dilution method; assay type: functional
Pseudomonas aeruginosa [35] = assay: Antimicrobial activity against Pseudomonas aeruginosa PS28 with PFGE phenotype 6 expressing beta-lactamase KPC-5 obtained from skin of patient by agar dilution method; assay type: functional
Pseudomonas aeruginosa [36] = assay: Antimicrobial activity against Pseudomonas aeruginosa PS3 with PFGE phenotype 12 obtained from sputum of ICU patient by agar dilution method; assay type: functional
Pseudomonas aeruginosa [37] = assay: Antimicrobial activity against Pseudomonas aeruginosa PS31 with PFGE phenotype 11B obtained from skin of patient by agar dilution method; assay type: functional
Pseudomonas aeruginosa [38] = assay: Antimicrobial activity against Pseudomonas aeruginosa PS22 with PFGE phenotype 3A obtained from urine of patient by agar dilution method; assay type: functional

Compound | MIC (Pseudomonas aeruginosa [1]) [µg/mL] | MIC (Pseudomonas aeruginosa [2]) [µg/mL] | MIC (Pseudomonas aeruginosa [3]) [µg/mL] | MIC (Pseudomonas aeruginosa [4]) [µg/mL] | MIC (Pseudomonas aeruginosa [5]) [µg/mL] | MIC (Pseudomonas aeruginosa [6]) [µg/mL] | MIC (Pseudomonas aeruginosa [7]) [µg/mL] | MIC (Pseudomonas aeruginosa [8]) [µg/mL] | MIC (Pseudomonas aeruginosa [9]) [µg/mL] | MIC (Pseudomonas aeruginosa [10]) [µg/mL] | MIC (Pseudomonas aeruginosa [11]) [µg/mL] | MIC (Pseudomonas aeruginosa [18]) [µg/mL] | MIC (Pseudomonas aeruginosa [19]) [µg/mL] | MIC (Pseudomonas aeruginosa [20]) [µg/mL] | MIC (Pseudomonas aeruginosa [21]) [µg/mL] | MIC (Pseudomonas aeruginosa [22]) [µg/mL] | MIC (Pseudomonas aeruginosa [25]) [µg/mL] | MIC (Pseudomonas aeruginosa [30]) [µg/mL] | MIC (Pseudomonas aeruginosa [36]) [µg/mL] | MIC (Pseudomonas aeruginosa [38]) [µg/mL] | further results
CC(C)(O/N=C(\C(=O)N[C@@H]1C(=O)N2C(C(=O)[O-])=C(C[n+]3ccccc3)CS[C@H]12)c1csc(N)n1)C(=O)O [CEFTAZIDIME] | 16 (≈ 29.3 µM) | 32 (≈ 58.5 µM) | 64 (≈ 117 µM) | 64 (≈ 117 µM) | 8 (≈ 14.6 µM) | 128 (≈ 234 µM) | 64 (≈ 117 µM) | 2 (≈ 3.66 µM) | 32 (≈ 58.5 µM) | 64 (≈ 117 µM) | 32 (≈ 58.5 µM) | 128 (≈ 234 µM) | > 128 | 64 (≈ 117 µM) | > 128 | 8 (≈ 14.6 µM) | 1 (≈ 1.83 µM) | 128 (≈ 234 µM) | 4 (≈ 7.32 µM) | 16 (≈ 29.3 µM) | MIC (Pseudomonas aeruginosa [12]): 64 µg/mL (≈ 117 µM); MIC (Pseudomonas aeruginosa [13]): 32 µg/mL (≈ 58.5 µM); MIC (Pseudomonas aeruginosa [14]): 64 µg/mL (≈ 117 µM); MIC (Pseudomonas aeruginosa [15]): 64 µg/mL (≈ 117 µM); MIC (Pseudomonas aeruginosa [16]): 64 µg/mL (≈ 117 µM); MIC (Pseudomonas aeruginosa [17]): 64 µg/mL (≈ 117 µM); MIC (Pseudomonas aeruginosa [23]): 64 µg/mL (≈ 117 µM); MIC (Pseudomonas aeruginosa [24]): > 128 µg/mL; MIC (Pseudomonas aeruginosa [26]): 64 µg/mL (≈ 117 µM); MIC (Pseudomonas aeruginosa [27]): 64 µg/mL (≈ 117 µM); MIC (Pseudomonas aeruginosa [28]): 64 µg/mL (≈ 117 µM); MIC (Pseudomonas aeruginosa [29]): 64 µg/mL (≈ 117 µM); MIC (Pseudomonas aeruginosa [31]): 64 µg/mL (≈ 117 µM); MIC (Pseudomonas aeruginosa [32]): > 128 µg/mL; MIC (Pseudomonas aeruginosa [33]): 64 µg/mL (≈ 117 µM); MIC (Pseudomonas aeruginosa [34]): 64 µg/mL (≈ 117 µM); MIC (Pseudomonas aeruginosa [35]): 128 µg/mL (≈ 234 µM); MIC (Pseudomonas aeruginosa [37]): 64 µg/mL (≈ 117 µM)
C[C@@H](O)[C@H]1C(=O)N2C(C(=O)O)=C(SCCNC=N)C[C@H]12 [IMIPENEM ANHYDROUS] | 16 (≈ 53.4 µM) | > 64 | > 64 | > 64 | 8 (≈ 26.7 µM) | > 64 | 64 (≈ 214 µM) | 16 (≈ 53.4 µM) | > 64 | > 64 | > 64 | 64 (≈ 214 µM) | 64 (≈ 214 µM) | > 64 | 64 (≈ 214 µM) | 8 (≈ 26.7 µM) | 1 (≈ 3.34 µM) | 32 (≈ 107 µM) | 16 (≈ 53.4 µM) | 8 (≈ 26.7 µM) | MIC (Pseudomonas aeruginosa [12]): > 64 µg/mL; MIC (Pseudomonas aeruginosa [13]): > 64 µg/mL; MIC (Pseudomonas aeruginosa [14]): > 64 µg/mL; MIC (Pseudomonas aeruginosa [15]): > 64 µg/mL; MIC (Pseudomonas aeruginosa [16]): > 64 µg/mL; MIC (Pseudomonas aeruginosa [17]): > 64 µg/mL; MIC (Pseudomonas aeruginosa [23]): > 64 µg/mL; MIC (Pseudomonas aeruginosa [24]): > 64 µg/mL; MIC (Pseudomonas aeruginosa [26]): > 64 µg/mL; MIC (Pseudomonas aeruginosa [27]): > 64 µg/mL; MIC (Pseudomonas aeruginosa [28]): > 64 µg/mL; MIC (Pseudomonas aeruginosa [29]): > 64 µg/mL; MIC (Pseudomonas aeruginosa [31]): > 64 µg/mL; MIC (Pseudomonas aeruginosa [32]): > 64 µg/mL; MIC (Pseudomonas aeruginosa [33]): > 64 µg/mL; MIC (Pseudomonas aeruginosa [34]): > 64 µg/mL; MIC (Pseudomonas aeruginosa [35]): > 64 µg/mL; MIC (Pseudomonas aeruginosa [37]): > 64 µg/mL
C[C@@H](O)[C@H]1C(=O)N2C(C(=O)O)=C(S[C@@H]3CN[C@H](C(=O)N(C)C)C3)[C@H](C)[C@H]12 [MEROPENEM] | 32 (≈ 83.4 µM) | – | – | – | 16 (≈ 41.7 µM) | – | 16 (≈ 41.7 µM) | 8 (≈ 20.9 µM) | – | – | – | 16 (≈ 41.7 µM) | 32 (≈ 83.4 µM) | 32 (≈ 83.4 µM) | 32 (≈ 83.4 µM) | 16 (≈ 41.7 µM) | 0.5 (≈ 1.3 µM) | 16 (≈ 41.7 µM) | 8 (≈ 20.9 µM) | 16 (≈ 41.7 µM) | –
